According to PubChem BioAssay (NCI):
Values joined by “and” are separate entries in the source; they are usually repeats but may differ in a detail not shown here. Equal values may be shown once.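 Compound exposure: 48 hours, 5 concentrations, 96-well plates. GI50 = concentration required for 50% inhibition of growth. TGI is the concentration that stops growth completely.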

Assays:
Test in all cases: DTP human tumour cell line panel, 48 h
ACHN renal = system: ACHN renal
UACC-257 melanoma = system: UACC-257 melanoma
OVCAR-8 ovarian = system: OVCAR-8 ovarian
PC-3 prostate = system: PC-3 prostate
K-562 leukemia = system: K-562 leukemia
A498 renal = system: A498 renal
RXF 393 renal = system: RXF 393 renal
NCI-H23 lung = system: NCI-H23 lung
HOP-92 NSCLC = system: HOP-92 NSCLC
SN12C renal = system: SN12C renal

| SMILES | GI50 (ACHN renal) [µM] | TGI (ACHN renal) | GI50 (UACC-257 melanoma) [µM] | TGI (UACC-257 melanoma) [µM] | GI50 (OVCAR-8 ovarian) | TGI (OVCAR-8 ovarian) [µM] | GI50 (PC-3 prostate) [µM] | TGI (PC-3 prostate) | GI50 (K-562 leukemia) [µM] | TGI (K-562 leukemia) [µM] | GI50 (A498 renal) | TGI (A498 renal) [µM] | GI50 (RXF 393 renal) [µM] | TGI (RXF 393 renal) | GI50 (NCI-H23 lung) [µM] | TGI (NCI-H23 lung) | GI50 (HOP-92 NSCLC) [µM] | TGI (HOP-92 NSCLC) [µM] | TGI (SN12C renal) | GI50 (SN12C renal) [µM] |
| --- | --- | --- | --- | --- | --- | --- | --- | --- | --- | --- | --- | --- | --- | --- | --- | --- | --- | --- | --- | --- |
| Nc1nc(Cl)cc2c1ncn2C1OC(CO)C(O)C1O (stereo not given) | > 100 | > 100 µM | > 100 | > 100 | > 100 µM | > 100 | > 100 | > 100 µM | > 100 | > 100 | > 100 µM | > 100 | > 100 | > 100 µM | > 100 | > 100 µM | > 100 | > 100 | – | – |
| COC1=CC(=O)c2c(O)c3c(c(O)c2C1=O)CC(C)(O)OC3 (stereo not given) | – | > 34 µM | – | 4.88 | – | 8.65 | – | 14.9 µM | – | > 45.3 | – | 25.2 | – | 16.5 µM | – | 8.42 µM | – | 10.5 | 14.2 µM | – |
| COc1cc2c(cc1OC)[C@@H]1[C@H](C2=O)c2ccc([N+](=O)[O-])cc2C(=O)N1CCCBr | – | – | 0.0737 | 0.893 | 0.0169 µM | 2.04 | 1.19 | > 70.4 µM | 1.26 | > 100 | 0.666 µM | 2.14 | 0.285 | 2.22 µM | < 0.01 | 1.8 µM | 3.15 | > 100 | 0.934 µM | 0.277 |
| COC(=O)c1ccc2c(c1)[n+](=O)c(C(C)=O)c(C(F)(F)F)n2[O-] | 1.76 | 3.24 µM | 1.82 | 3.31 | 2.87 µM | 8.28 | 1.64 | 3.63 µM | 2.31 | 7.7 | 1.72 µM | 3.3 | 2.04 | 3.86 µM | 1.81 | 3.38 µM | 1.48 | 3.14 | – | – |
| COc1ccc(NC(=O)CC(=O)n2nc(-c3ccccc3)c(N=Nc3ccc(C)cc3)c2-c2ccccc2)cc1 | – | 60.9 µM | – | > 95.8 | – | 63.3 | – | > 57.9 µM | – | > 100 | – | > 76.5 | – | 46.4 µM | – | 54 µM | – | 40.6 | 81.9 µM | – |
| O=C1C=Cc2cc3ccccc3c3cccc1c23 | 2.06 | 7.39 µM | 4.29 | 19.2 | 3.3 µM | 16.7 | 3.47 | 19.1 µM | 5.59 | > 100 | – | – | 2.71 | 8.62 µM | 2.57 | 9.95 µM | 1.11 | 6.29 | 11.3 µM | 2.71 |
| O=C(NCCc1ccccc1)C(c1csc2ccccc12)N(C(=O)CCl)c1ccc(-c2cnco2)cc1 (stereo not given) | 0.139 | 0.537 µM | 1.63 | 3.17 | 0.169 µM | 1.28 | 0.511 | 1.9 µM | 0.509 | > 20.7 | 0.62 µM | 1.48 | 0.145 | 0.587 µM | 0.0209 | 0.0508 µM | 0.174 | 0.443 | 2.03 µM | 0.412 |
| COc1cccc(-n2cnc3c(N/N=C/c4ccncc4)ncnc32)c1 | 9.06 | > 25 µM | > 19.7 | > 25 | > 20.6 µM | > 25 | > 25 | > 25 µM | 10.9 | > 25 | 7.1 µM | > 23.2 | 6.42 | > 25 µM | > 25 | > 25 µM | > 10.4 | > 25 | > 25 µM | 13.2 |
| NS(=O)(=O)OC[C@H]1O[C@@H](n2cnc3c(N[C@H]4CCc5ccccc54)ncnc32)[C@H](O)[C@@H]1O | 0.167 | 0.57 µM | 0.213 | 0.577 | 0.0865 µM | 1.02 | 0.337 | 2.14 µM | 0.0369 | > 100 | 0.0288 µM | 0.124 | 0.258 | 0.506 µM | 0.185 | 1.26 µM | 0.475 | 0.799 | 1.3 µM | 0.231 |
| COc1ccc(OC)c(-c2cc(-c3ccc(Cl)cc3)nn2-c2ccc(S(N)(=O)=O)cc2)c1 | – | – | 3.98 | 16.4 | 11.3 µM | 34.6 | 3.62 | 15.7 µM | 2.07 | 4.87 | 13.9 µM | 29.7 | – | – | 13.4 | 28.3 µM | 19.2 | 62.5 | 28.2 µM | 14.5 |
| COc1cc(OC)cc(-c2n[nH]nc2-c2ccc3c(c2)OCO3)c1 | 0.705 | > 100 µM | 18.2 | 70.4 | 0.512 µM | 31.3 | 0.255 | 43.7 µM | 0.0496 | > 100 | 0.343 µM | 9.32 | – | – | 0.768 | > 100 µM | 0.122 | 1.59 | > 100 µM | 2.14 |
| C=C1c2c(C)nn(-c3ccccc3)c2N(C)C23C[C@@H]1C1(C)c4c(C)nn(-c5ccccc5)c4N(C)C(C)(C[C@H]12)C3 (stereo not given in full) | 4.78 | > 100 µM | 2.87 | > 100 | 5.41 µM | > 100 | 0.979 | > 100 µM | – | – | 4.28 µM | 45.9 | 2.04 | 6.39 µM | 7.99 | > 100 µM | 0.549 | 5.53 | > 100 µM | 9.92 |
| Nc1ncnc2c1ncn2C1OC(CO)C(O)C1O (stereo not given) | 30.4 | > 100 µM and 96.8 µM | > 450 | > 450 | 32.9 µM and 79.3 µM and 12.6 µM | > 401 | 1.44 | > 100 µM and 12.8 µM | – | > 450 | 93.2 µM and 43.5 µM and 55.1 µM | > 100 | 22.5 | > 100 µM and 290 µM and 64.1 µM | – | > 100 µM and > 450 µM and 77.3 µM | – | – | > 100 µM and 393 µM and 97.6 µM | 16 |
